Experimental data: publication PMC6151740, “Pharmacokinetics, Tissue Distribution, and Elimination of Three Active Alkaloids in Rats after Oral Administration of the Effective Fraction of Alkaloids from Ramulus Mori, an Innovative Hypoglycemic Agent” (Molecules : A Journal of Synthetic Chemistry and Natural …, 2017)
Values joined by “and” are separate entries in the source; they are usually repeats but may differ in a detail not shown here. Identical values can stand only once.

What was measured:
[1] = Excretion into urine, feces and bile in rats after oral SZ–A; format: in vivo; conditions: rat, SZ–A 40 mg/kg p.o.; for dose excreted: bile, po, within 32 h, read-out: recovery in bile (% of dose); for cumulative excretion into feces (% of dose) / cumulative excretion into urine (% of dose): over a 24 h period, n = 5
Experimental: Five rats were kept in the metabolic cages with free access to water and food 2 h post dose. Urine was collected before dosing and at 0–4, 4–8, 8–24, 24–36, and 36–48 h, and feces was simultaneously collected before dosing and at 0–24, 24–36, and 36–48 h after oral dosing of SZ–A (40 mg/kg). Feces samples were dried and grinded into powder, then homogenized with normal saline solution (1:9, w/v). Additionally, the bile duct of rats under ether anesthesia were cannulated with a PE-10 tube (Portex Ltd., Kent, UK). Bile was collected before dosing and at 0–1, 1–2, 2–4, 4–6, 6–10, 10–20, 20–24, 24–28, and 28–32 h following oral administration of SZ–A (40 mg/kg). All urine, feces, and bile samples were stored at −20 °C until LC-MS/MS analysis.

[2] = tested on: rat caecal microbiota cultures; test: In vitro incubation of SZ–A with rat caecal microbiota cultures; format: in vitro ADME; conditions: 2 h
Experimental: Pooled rat intestinal homogenate from six males was prepared using a tissue homogenizer with ice cold normal saline solution at a proportion of 1:3 (w/v). SZ–A was incubated with rat intestinal homogenate (5 mg protein/mL) with/without a NADPH-generating system (0.011 M β-NADP, 0.1 M glucose 6-phosphate, 10 U/mL glucose-6-phosphate dehydrogenase) in a 37 °C water bath for 120 min. Meanwhile, caecal content was collected and mixed with anaerobic medium (1:30, w/v) to prepare the cultures under nitrogen atmosphere at 37 °C for 120 min. SZ–A and rat caecal microbiota cultures were incubated at a total volume of 200 μL with the boiled samples as the negative control, concomitantly. The incubation was stopped at 2 h by adding two volumes of methanol–acetonitrile (1:3, v/v). Triplicate supernatants were taken by centrifugation at 18,880× g for 5 min and stored at −20 °C until LC-MS/MS analysis. The results were expressed as the percentage of the concentration at 0 min.

[3] = In situ single-pass intestinal perfusion (rat jejunum, mesenteric vein blood); format: in vivo; conditions: by 60 min, n = 5
Experimental: The surgical procedures were similar to those described elsewhere. The Hank’s balanced salt solution (HBSS, pH = 7.4) with SZ–A (21.73 μg/mL) or DNJ (50 μM) at 37 °C was infused into the jejunum at 0.3 mL/min individually. Phenol Red (50 μM) was added to serve as a nonabsorbable marker for measuring water flux. The blood from mesenteric vein and perfusate were collected at five-minute intervals. The plasma was separated by centrifugation and perfusate were immediately frozen at −20 °C for LC-MS/MS analysis. Atenolol and propranolol, the low- and high-permeability markers, were used to check the integrity of the intestinal membrane.

[4] = DNJ 110 mg/kg ingested; cited from earlier work
[5] = 4.35 μg/mL SZ–A (10 μM DNJ, 1.9 μM FGM, 1.6 μM DAB)
[6] = 10.87 μg/mL SZ–A (25 μM DNJ, 4.7 μM FGM, 3.9 μM DAB)

Structure (SMILES)	dose excreted [1] [%]	cumulative excretion into feces (% of dose) [1] [%]	cumulative excretion into urine (% of dose) [1] [%]	percentage of initial amount after incubation with rat gut microbiota cultures [2, 5] [%]	percentage of initial amount after incubation with rat gut microbiota cultures [2, 6] [%]	cumulative amount per unit of area absorbed into the mesenteric venous blood ([3]; perfusion of SZ–A 21.73 μg/mL (containing 50 μM DNJ)) [pmol/cm^2]	cumulative amount per unit of area absorbed into the mesenteric venous blood ([3]; perfusion of purified DNJ 50 μM) [pmol/cm^2]	fraction of ingested DNJ incorporated into the rat plasma [4] [%]	total excretive amount (urine and feces) relative to the oral dose [1]	cumulative excretion into feces (% of dose) ([1]; 40 mg/kg)
OC[C@H]1NC[C@@H](O)[C@@H]1O [DAB, 1,4-dideoxy-1,4-imino-D-arabinitol]	0.35	34.05	52.91	182.2	159.3	–	–	–	–	–
OC[C@H]1NC[C@H](O)[C@@H](O)[C@@H]1O [DNJ, 1-deoxynojirimycin]	0.29	43.97	65.32	110.6	115.5	2136.1	1787.1	1	–	–
OC[C@H]1NCC[C@@H](O)[C@@H]1O [FGM, fagomine]	0.5	–	65.36	152.8	172.0	–	–	–	about two-fold	131.4% and 131.41%
